{"source": "patent US20150329498A1", "about": "“IRAK INHIBITORS AND USES THEREOF” (Nimbus Iris, Inc., priority 2014, published 2015)", "data": [{"molecular_target": "T1, IRAK4 (Homo sapiens, UniProt Q9NWZ3)", "T1 construct": "purchased CARNA Bioscience 09-145", "T1 sequence (Q9NWZ3 1-460)": "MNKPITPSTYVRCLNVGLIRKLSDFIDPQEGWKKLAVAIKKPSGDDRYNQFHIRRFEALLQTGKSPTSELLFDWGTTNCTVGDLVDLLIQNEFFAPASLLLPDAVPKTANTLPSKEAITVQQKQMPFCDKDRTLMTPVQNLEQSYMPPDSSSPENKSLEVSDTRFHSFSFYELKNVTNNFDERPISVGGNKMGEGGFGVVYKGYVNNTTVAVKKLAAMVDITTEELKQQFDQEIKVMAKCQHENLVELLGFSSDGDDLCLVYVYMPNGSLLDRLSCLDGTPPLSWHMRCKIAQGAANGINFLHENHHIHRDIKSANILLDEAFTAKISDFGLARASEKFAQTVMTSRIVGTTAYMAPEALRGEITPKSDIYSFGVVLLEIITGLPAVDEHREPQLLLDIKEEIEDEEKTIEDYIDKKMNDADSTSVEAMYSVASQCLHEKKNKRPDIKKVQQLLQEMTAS", "assay": "IRAK-4 activity inhibition assay (Caliper)", "assay_type": "biochemical", "details": "3.5 nM IRAK4, 1.5 μM Peptide 8, 37 μM ATP", "protocol": "A 1x kinase base buffer was prepared from 50 mM HEPES, pH 7.5 and 0.0015% Brij-35. A stop buffer was prepared from 100 mM HEPES, pH 7.5, 0.015% Brij-35, 0.2% Coating Reagent #3, and 50 mM EDTA.\nTest compound was diluted to 50× of the final desired highest inhibitor concentration in reaction by 100% DMSO. 100 ul of this compound dilution was transferred to a well in a 96-well plate. For example, if desired highest inhibitor concentration in IC50 determination is 100 uM, then prepare 5000 uM of compound DMSO solution in this step.\nTest compound was serially diluted by transferring 30 μl to 60 μl of 100% DMSO in the next well and so forth for a total of 10 concentrations. 100 μl of 100% DMSO was added to two empty wells for no compound control and no enzyme control in the same 96-well plate.\nA new 96-well plate was marked as intermediate plate. 5 μl of compound serial dilution was transferred from source plate to the corresponding wells of the intermediate plate. 45 μl of 1x kinase base buffer (KB buffer) was added to each well of the intermediate plate. The intermediate plate was placed for 10 min on a shaker.\n5 μl of each well was transferred from the 96-well intermediate plate to a 384-well plate in duplicates. For example, A1 of the 96-well plate is transferred to A1 and A2 of the 384-well plate. A2 of the 96-well plate is transferred to A3 and A4 of the 384-well plate, and so on.\nIRAK4 and DTT in 1x kinase base buffer was added. The 2.5x enzyme mix contained 8.8 nM IRAK4 and 5 mM DTT.\nPeptide 8, ATP, MgCl2 and MnCl2 were added in the 1x kinase base buffer. The 2.5x peptide mix contained 3.75 μM peptide 8, 92.5 μM ATP, 12.5 mM MgCl2 and 2.5 mM MnCl2.\nAssay plate already contained 5 μl of compound in 10% DMSO. Added 10 μl of 2.5x enzyme solution to each well of the 384-well assay plate, except no enzyme control wells. The final concentration of IRAK4 in reaction was 3.5 nM. Added 10 μl of 1x kinase base buffer to no enzyme control wells in the assay plate. Incubated at room temperature for 10 min.\nAdded 10 μl of 2.5x peptide solution to each well of the 384-well assay plate. The final concentration of Peptide 8 and ATP was 1.5 μM and 37 μM, respectively. Incubated at for 40 minutes. Added 25 μl of stop buffer to stop reaction. Collected data on Caliper.\nCopied conversion % data from Caliper program. Converted conversion % values to percent inhibition values. Percent inhibition=(max−conversion %)/(max−min)*100, where “max” means the conversion % of DMSO control and “min” means the conversion % of no enzyme control.\nThe compound numbers correspond to the compound numbers in Table 1. Compounds having an activity designated as “A” provided an IC50≦5 μM; compounds having an activity designated as “B” provided an IC50 of 5-20 μM; compounds having an activity designated as “C” provided an IC50 of 20-50 μM; and compounds having an activity designated as “D” provided an IC50≧50 μM. “NA” stands for “not assayed.”", "units": {"IC50": "µM"}, "values": [{"smiles": "CN(CC(=O)N1CCCC1)[C@H]1CC[C@H](Nc2ncnc3ccc(C#N)cc23)CC1", "note": "[Compound I-13, 4-(((1r,4r)-4-(methyl(2-oxo-2-(pyrrolidin-1-yl)ethyl)amino)-cyclohexyl)amino)quinazoline-6-carbonitrile]", "IC50": "≤ 5"}, {"smiles": "COCCc1ccc2ncnc(N[C@H]3CC[C@H](N4CCOCC4)CC3)c2c1", "note": "[Compound I-33, 6-(2-methoxyethyl)-N-((1r,4r)-4-morpholinocyclohexyl)-quinazolin-4-amine]", "IC50": "≤ 5"}, {"smiles": "CC1(C)CCN([C@H]2CC[C@H](Nc3ncnc4ccc(C#N)cc34)CC2)CC1", "note": "[Compound I-37, 4-(((1r,4r)-4-(4,4-dimethylpiperidin-1-yl)cyclohexyl)amino)-quinazoline-6-carbonitrile]", "IC50": "≤ 5"}, {"smiles": "CCc1ccc2ncnc(N[C@H]3CC[C@H](N4CCC(C)(C)CC4)CC3)c2c1", "note": "[Compound I-45, N-((1r,4r)-4-(4,4-dimethylpiperidin-1-yl)cyclohexyl)-6-ethylquina-zolin-4-amine]", "IC50": "≤ 5"}, {"smiles": "NC(=O)CCc1ccc2ncnc(N[C@H]3CC[C@H](N4CCOCC4)CC3)c2c1", "note": "[Compound I-50, 3-(4-(((1r,4r)-4-morpholinocyclohexyl)amino)quinazolin-6-yl)propanamide]", "IC50": "≤ 5"}, {"smiles": "FC(F)(F)c1ccc2ncnc(O[C@H]3CC[C@H](N4CCOCC4)CC3)c2c1", "note": "[Compound I-6, 4-((1r,4r)-4-((6-(trifluoromethyl)quinazolin-4-yl)oxy)cyclohexyl)-morpholine]", "IC50": "≤ 5"}, {"smiles": "c1ccc2c(N[C@H]3CC[C@H](N4CCOCC4)CC3)ncnc2c1", "note": "[Compound I-1, N-((1r,4r)-4-morpholinocyclohexyl)quinazolin-4-amine]", "IC50": "≤ 5"}, {"smiles": "C=Cc1ccc2nccc(N[C@H]3CC[C@H](N4CCC5(CC4)CC5)CC3)c2c1", "note": "[Compound I-49, N-((1r,4r)-4-(6-azaspiro[2.5]octan-6-yl)cyclohexyl)-6-vinylquino-lin-4-amine]", "IC50": "≤ 5"}, {"smiles": "Brc1ccc2ncnc(O[C@H]3CC[C@H](N4CCOCC4)CC3)c2c1", "note": "[Compound I-4, 4-((1r,4r)-4-((6-bromoquinazolin-4-yl)oxy)cyclohexyl)morpholine]", "IC50": "≤ 5"}, {"smiles": "N#Cc1ccc2nccc(N[C@H]3CC[C@H](N4CCC5(CC4)CC5)CC3)c2c1", "note": "[Compound I-48, 4-(((1r,4r)-4-(6-azaspiro[2.5]octan-6-yl)cyclohexyl)-amino)quinoline-6-carbonitrile]", "IC50": "≤ 5"}, {"smiles": "O=C(O)/C=C/c1ccc2ncnc(N[C@H]3CC[C@H](N4CCOCC4)CC3)c2c1", "note": "[Compound I-55, (E)-3-(4-(((1 r,4r)-4-morpholinocyclohexyl)amino)quinazolin-6-yl)acrylic acid]", "IC50": "≤ 5"}, {"smiles": "OCc1ccc2ncnc(N[C@H]3CC[C@H](N4CCOCC4)CC3)c2c1", "note": "[Compound I-23, (4-(((1r,4r)-4-morpholinocyclohexyl)amino)quinazolin-6-yl)methanol]", "IC50": "≤ 5"}, {"smiles": "NC(=O)c1ccc2ncnc(O[C@H]3CC[C@H](N4CCOCC4)CC3)c2c1", "note": "[Compound I-9, 4-(((1r,4r)-4-morpholinocyclohexyl)oxy)quinazoline-6-carboxamide]", "IC50": "≤ 5"}, {"smiles": "OCc1ccc2ncnc(O[C@H]3CC[C@H](N4CCOCC4)CC3)c2c1", "note": "[Compound I-19, (4-(((1r,4r)-4-morpholinocyclohexyl)oxy)quinazolin-6-yl)methanol]", "IC50": "≤ 5"}, {"smiles": "OCC(O)c1ccc2ncnc(N[C@H]3CC[C@H](N4CCOCC4)CC3)c2c1", "note": "(some centres unmarked) [Compound I-21, 1-(4-(((1r,4r)-4-morpholinocyclohexyl)amino)quinazolin-6-yl)-ethane-1,2-diol]", "IC50": "≤ 5"}, {"smiles": "CC(C)(O)/C=C/c1ccc2ncnc(N[C@H]3CC[C@H](N4CCOCC4)CC3)c2c1", "note": "[Compound I-57, (E)-2-methyl-4-(4-(((1r,4r)-4-morpholinocyclohexyl)amino)quina-zolin-6-yl)but-3-en-2-ol]", "IC50": "≤ 5"}, {"smiles": "N#CCCc1ccc2ncnc(N[C@H]3CC[C@H](N4CCOCC4)CC3)c2c1", "note": "[Compound I-51, 3-(4-(((1r,4r)-4-morpholinocyclohexyl)amino)quinazolin-6-yl)propanenitrile]", "IC50": "≤ 5"}, {"smiles": "CCc1ccc2ncnc(O[C@H]3CC[C@H](N4CCOCC4)CC3)c2c1", "note": "[Compound I-18, 4-((1r,4r)-4-((6-ethylquinazolin-4-yl)oxy)cyclohexyl) morpholine]", "IC50": "≤ 5"}, {"smiles": "OCC(O)c1ccc2ncnc(O[C@H]3CC[C@H](N4CCOCC4)CC3)c2c1", "note": "(some centres unmarked) [Compound I-17, 1-(4-(((1r,4r)-4-morpholinocyclohexyl)oxy)quinazolin-6-yl)ethane-1,2-diol]", "IC50": "≤ 5"}, {"smiles": "N#Cc1ccc2ncnc(O[C@H]3CC[C@H](N4CCOCC4)CC3)c2c1", "note": "[Compound I-8, 4-(((1r,4r)-4-morpholinocyclohexyl)oxy)quinazoline-6-carbonitrile]", "IC50": "≤ 5"}, {"smiles": "Cc1cc(Nc2nc(N[C@H]3CC[C@H](N4CCOCC4)CC3)c3cc(C#N)ccc3n2)sn1", "note": "[Compound I-61, 2-((3-methylisothiazol-5-yl)amino)-4-(((1r,4r)-4-morpholino-cyclohexyl)amino)quinazoline-6-carbonitrile]", "IC50": "≤ 5"}, {"smiles": "FC(F)(F)c1ccc2ncnc(N[C@H]3CC[C@H](N4CCOCC4)CC3)c2c1", "note": "[Compound I-12, N-((1r,4r)-4-morpholinocyclohexyl)-6-(trifluoromethyl)-quinazolin-4-amine]", "IC50": "≤ 5"}, {"smiles": "C=Cc1ccc2ncnc(N[C@H]3CC[C@H](N4CCC(C)(C)CC4)CC3)c2c1", "note": "[Compound I-43, N-((1r,4r)-4-(4,4-dimethylpiperidin-1-yl)cyclohexyl)-6-vinyl-quinazolin-4-amine]", "IC50": "≤ 5"}, {"smiles": "Cn1cc(-c2ccc3ncnc(N[C@H]4CC[C@H](N5CCOCC5)CC4)c3c2)cn1", "note": "[Compound I-60, 6-(1-methyl-1H-pyrazol-4-yl)-N-((1r,4r)-4-morpholinocyclo-hexyl)quinazolin-4-amine]", "IC50": "≤ 5"}, {"smiles": "COCc1ccc2ncnc(N[C@H]3CC[C@H](N4CCOCC4)CC3)c2c1", "note": "[Compound I-32, 6-(methoxymethyl)-N-((1r,4r)-4-morpholinocyclohexyl)quina-zolin-4-amine]", "IC50": "≤ 5"}, {"smiles": "OC/C=C\\c1ccc2ncnc(N[C@H]3CC[C@H](N4CCOCC4)CC3)c2c1", "note": "[Compound I-42, (Z)-3-(4-(((1r,4r)-4-morpholinocyclohexyl)amino)quinazolin-6-yl)prop-2-en-1-ol]", "IC50": "≤ 5"}]}]}
